# Data from patent publication US4778511A, “Fluorine-containing N-sulphenylated indazoles for use as bactericides and fungicides” (Bayer Aktiengesellschaft, priority 1985, dated 1988).
# Columns and labels:
# [1] = test system: Chaelomium globosum; assay: MIC against fungi (agar), Chaetomium globosum; type: cell-based; settings: 336 h, beer wort/peptone agar, 2 weeks at 28° C., 60 to 70% relative humidity
# Method: (§1) Active compounds, according to the invention, are added in concentrations of 0.1 mg/l to 5000 mg/l, to an agar prepared from beer wort and peptone. The MIC is determined after the agar has been stored for 2 weeks at 28° C. and 60 to 70% relative atmospheric humidity. MlC is the lowest concentration of active compound at which the species of microbe used undergoes no growth at all; it is shown in the table below.
# [2] = test system: Aspergillus niger; assay: MIC against fungi (agar), Aspergillus niger; type: cell-based; settings: 336 h, beer wort/peptone agar, 2 weeks at 28° C., 60 to 70% relative humidity
# Method: as §1
# [3] = test system: Penicillium glaucum; assay: MIC against fungi (agar), Penicillium glaucum; type: cell-based; settings: 336 h, beer wort/peptone agar, 2 weeks at 28° C., 60 to 70% relative humidity
# Method: as §1
# [4] = test system: Allernaria tenuis; assay: MIC against fungi (agar), Alternaria tenuis; type: cell-based; settings: Alternaria alternata, 336 h, beer wort/peptone agar, 2 weeks at 28° C., 60 to 70% relative humidity
# Method: as §1
# [5] = test system: Cladosporium; assay: MIC against fungi (agar), Cladosporium; type: cell-based; settings: 336 h, beer wort/peptone agar, 2 weeks at 28° C., 60 to 70% relative humidity
# Method: as §1
# [6] = test system: Aureobasidium pullulans; assay: MIC against fungi (agar), Aureobasidium pullulans; type: cell-based; settings: 336 h, beer wort/peptone agar, 2 weeks at 28° C., 60 to 70% relative humidity
# Method: as §1
# [7] = test system: Sclerophoma pityophila; assay: MIC against fungi (agar), Sclerophoma pityophila; type: cell-based; settings: Sydowia polyspora, 336 h, beer wort/peptone agar, 2 weeks at 28° C., 60 to 70% relative humidity
# Method: as §1
# [8] = test system: Lentinus tigrinus; assay: MIC against fungi (agar), Lentinus tigrinus; type: cell-based; settings: 336 h, beer wort/peptone agar, 2 weeks at 28° C., 60 to 70% relative humidity
# Method: as §1
# [9] = test system: Drechslera graminea (syn. Helminthosporium gramineum); assay: Drechslera graminea test (barley)/seed treatment; type: in vivo; settings: application rate 500 mg/kg of seed, approx. 3 weeks after sowing, undressed 23.4
# Method: Drechslera graminea test (barley)/seed treatment (syn. Helminthosporium gramineum)
# The active compounds are applied in the form of dry dressing agents. They are formulated by diluting the particular active compound with ground minerals to give a finely powdered mixture, which ensures uniform distribution on the surface of the seed.
# The infested seed is dressed by shaking it for 3 minutes with the dressing agent in a closed glass jar.
# Embedded in sieved, moist standard soil, the seed is exposed to a temperature of 4° C. for 10 days in closed Petri dishes in a refrigerator. This initiates the germination of the barley sand, if appropriate, also that of the fungus spores. The pre-germinated barley is then sown in 2 lots of 50 grains 3 cm deep in standard soil and is cultivated in seed boxes which are exposed to light for 15 hours a day in a greenhouse at a temperature of approx. 18° C.
# The plants are evaluated for symptoms of stripe disease approx. 3 weeks after sowing.
# [10] = test system: Trichoderma viride; assay: MIC against fungi (agar), Trichoderma viride; type: cell-based; settings: 336 h, beer wort/peptone agar, 2 weeks at 28° C., 60 to 70% relative humidity
# Method: as §1
# [11] = test system: slime organisms; assay: Action against slime organisms (MIC); type: cell-based; settings: 504 h; slime organisms approx. 10^6 microbes/ml, Allen's nutrient solution with 1% caprolactam, room temperature, 3 weeks
# Method: Substances according to the invention are used in concentrations of 0.1 to 100 mg/l in each case, dissolved in a little acetone, in Allen's nutrient solution (Arch. Mikrobiol. 17, 34 to 53 (1952)) containing 0.2 g of ammonium chloride, 4.0 g of sodium nitrate, 1.0 g of dipotassium hydrogenphosphate, 0.2 g of calcium chloride, 2.05 g of magnesium sulphate and 0.02 g of iron chloride, together with 1% of caprolactam, in 4 l of sterile water. Shortly beforehand, the nutrient solution is infested with slime organisms (approx. 10^6 microbes/ml), isolated from the spinning water circulation used in the production of polyamide.
# [12] = test system: Polyporus versicolor; assay: MIC against fungi (agar), Polyporus versicolor; type: cell-based; settings: Trametes versicolor, 336 h, beer wort/peptone agar, 2 weeks at 28° C., 60 to 70% relative humidity
# Method: as §1
SMILES,MIC [1],MIC [2],MIC [3],MIC [4],MIC [5],MIC [6],MIC [7],MIC [8],MIC [10],MIC [11],MIC [12],Diseased plants as % of all the emerged plants [9]
"Fc1cccc2c1cnn2SC(F)(Cl)Cl [1-Dichlorofluoromethylsulphenyl-4-fluoroindazole, reference compound]",200 µg/mL,500 µg/mL,200 µg/mL,,,,,,,,,
"FC(F)(F)Oc1ccc2cnn(SC(Cl)(Cl)Cl)c2c1 [Example 1, 6-Trifluoromethoxy-1-trichloromethylsulphenylindazole]",75 µg/mL,20 µg/mL,20 µg/mL,150 µg/mL,20 µg/mL,350 µg/mL,75 µg/mL,75 µg/mL,,,,
"FC(F)(F)Oc1ccc2cnn(SC(F)(Cl)Cl)c2c1 [Example 2, 6-Trifluoromethoxy-1-dichlorofluoromethylsulphenylindazole]",2 µg/mL,20 µg/mL,2 µg/mL,75 µg/mL,20 µg/mL,150 µg/mL,35 µg/mL,20 µg/mL,,,,4.1%
FC1Oc2cc3c(cnn3SC(F)(Cl)Cl)cc2OC1(F)F (centres unmarked) [Example 4],100 µg/mL,150 µg/mL,100 µg/mL,,,,,,,,,
FC(F)(F)Oc1ccc2c(cnn2SC(F)(Cl)Cl)c1 [Example 5],20 µg/mL,20 µg/mL,20 µg/mL,20 µg/mL,,20 µg/mL,0.75 µg/mL,0.1 µg/mL,50 µg/mL,5 to 10 µg/mL,2 µg/mL,
Cc1cc(C(F)(F)F)c2cnn(SC(F)(Cl)Cl)c2c1Cl [Example 8],< 20 µg/mL,500 µg/mL,< 20 µg/mL,,,,,,,,,
FC(F)(F)Oc1ccc2c(cnn2SC(F)(Cl)Cl)c1Cl [Example 12],20 µg/mL,50 µg/mL,20 µg/mL,200 µg/mL,20 µg/mL,500 µg/mL,200 µg/mL,7.5 µg/mL,,,,
Cc1cc2cnn(SC(F)(Cl)Cl)c2c(C)c1C(F)(F)F [Example 15],< 20 µg/mL,50 µg/mL,< 20 µg/mL,,,,,,,,,

# Now from value to compound, other results behind:
MIC [1],MIC [2],MIC [3],MIC [4],MIC [5],MIC [6],MIC [7],MIC [8],MIC [10],MIC [11],MIC [12],SMILES,Diseased plants as % of all the emerged plants [9]
< 20 µg/mL,< 20 µg/mL,< 20 µg/mL,,,,,,,,,FC(F)(F)Sc1ccc2cnn(SC(F)(Cl)Cl)c2c1 [Example 16],
< 20 µg/mL,500 µg/mL,< 20 µg/mL,,,,,,,,,FC(Cl)(Cl)Sn1ncc2c(Cl)c(Cl)c(C(F)(F)F)cc21 [Example 17],
< 20 µg/mL,< 20 µg/mL,< 20 µg/mL,,,,,,,,,FC(F)(F)Sc1ccc2c(cnn2SC(F)(Cl)Cl)c1 [Example 18],
10 µg/mL,10 µg/mL,20 µg/mL,15 µg/mL,5 µg/mL,50 µg/mL,15 µg/mL,0.5 µg/mL,500 µg/mL,,,Cc1cc(F)cc2c1cnn2SC(F)(Cl)Cl [Example 19],
